Laboratory results published in US20080234262A1 (Wyeth, priority 2007, published 2008).

Experiments:
prostate line LNCap = assay: In vitro cell culture growth assay (MTS), LNCap; assay type: cell-based, human; conditions: LNCap cells, three days after drug treatment;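 note: viable cell density read by absorbance at 490 nm, growth expressed as percent of vehicle-treated cells on the same plate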
breast line MDA468 = assay: In vitro cell culture growth assay (MTS), MDA468; assay type: cell-based, human; conditions: MDA468 cells, three days after drug treatment
How it was run: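 Three-day drug treatment starting 1 day post-plating; viable cells quantified via MTS metabolism (A490); effect normalised to in-plate vehicle controls as % growth.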

PI3K = PI3K (Homo sapiens, UniProt P42336); assay: Fluorescence polarization assay for PI3K; assay type: biochemical; conditions: PI3Kα; read-out: PI3Kα IC50;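 note: PI3K kinase reaction on PIP2 with ATP, 30-60 min, product sensed by GST-GRP with red probe in fluorescence polarization (mP), controls without enzyme and at zero time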
Sequence of PI3K (P42336 whole entry): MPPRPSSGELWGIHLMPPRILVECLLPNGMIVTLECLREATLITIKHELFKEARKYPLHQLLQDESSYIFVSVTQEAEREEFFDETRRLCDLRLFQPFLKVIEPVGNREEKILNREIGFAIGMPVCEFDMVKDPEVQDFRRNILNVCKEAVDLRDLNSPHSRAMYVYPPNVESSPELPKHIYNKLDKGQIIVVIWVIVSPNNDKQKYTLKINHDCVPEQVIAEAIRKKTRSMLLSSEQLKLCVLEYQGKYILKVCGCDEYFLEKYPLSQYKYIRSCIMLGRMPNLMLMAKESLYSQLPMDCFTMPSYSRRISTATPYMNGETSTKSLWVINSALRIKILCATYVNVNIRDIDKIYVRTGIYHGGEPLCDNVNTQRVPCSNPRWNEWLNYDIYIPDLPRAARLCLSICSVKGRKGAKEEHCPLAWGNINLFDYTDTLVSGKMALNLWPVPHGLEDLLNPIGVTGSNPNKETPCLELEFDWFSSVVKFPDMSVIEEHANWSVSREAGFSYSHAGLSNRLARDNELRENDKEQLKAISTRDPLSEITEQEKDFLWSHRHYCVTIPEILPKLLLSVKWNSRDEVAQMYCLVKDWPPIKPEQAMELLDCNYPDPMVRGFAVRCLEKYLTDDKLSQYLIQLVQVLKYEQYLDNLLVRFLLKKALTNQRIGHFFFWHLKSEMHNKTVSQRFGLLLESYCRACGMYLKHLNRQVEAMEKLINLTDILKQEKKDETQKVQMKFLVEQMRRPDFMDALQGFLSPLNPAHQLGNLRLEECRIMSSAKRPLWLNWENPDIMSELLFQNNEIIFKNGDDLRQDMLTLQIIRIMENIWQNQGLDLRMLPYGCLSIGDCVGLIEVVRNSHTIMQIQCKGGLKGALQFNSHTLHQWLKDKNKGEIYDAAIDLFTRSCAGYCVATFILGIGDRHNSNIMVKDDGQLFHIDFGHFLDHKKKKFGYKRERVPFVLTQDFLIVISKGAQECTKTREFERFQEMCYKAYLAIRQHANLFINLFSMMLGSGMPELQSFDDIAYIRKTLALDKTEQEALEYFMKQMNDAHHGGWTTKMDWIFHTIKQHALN
Sequence of PI3K (P27986 whole entry partner): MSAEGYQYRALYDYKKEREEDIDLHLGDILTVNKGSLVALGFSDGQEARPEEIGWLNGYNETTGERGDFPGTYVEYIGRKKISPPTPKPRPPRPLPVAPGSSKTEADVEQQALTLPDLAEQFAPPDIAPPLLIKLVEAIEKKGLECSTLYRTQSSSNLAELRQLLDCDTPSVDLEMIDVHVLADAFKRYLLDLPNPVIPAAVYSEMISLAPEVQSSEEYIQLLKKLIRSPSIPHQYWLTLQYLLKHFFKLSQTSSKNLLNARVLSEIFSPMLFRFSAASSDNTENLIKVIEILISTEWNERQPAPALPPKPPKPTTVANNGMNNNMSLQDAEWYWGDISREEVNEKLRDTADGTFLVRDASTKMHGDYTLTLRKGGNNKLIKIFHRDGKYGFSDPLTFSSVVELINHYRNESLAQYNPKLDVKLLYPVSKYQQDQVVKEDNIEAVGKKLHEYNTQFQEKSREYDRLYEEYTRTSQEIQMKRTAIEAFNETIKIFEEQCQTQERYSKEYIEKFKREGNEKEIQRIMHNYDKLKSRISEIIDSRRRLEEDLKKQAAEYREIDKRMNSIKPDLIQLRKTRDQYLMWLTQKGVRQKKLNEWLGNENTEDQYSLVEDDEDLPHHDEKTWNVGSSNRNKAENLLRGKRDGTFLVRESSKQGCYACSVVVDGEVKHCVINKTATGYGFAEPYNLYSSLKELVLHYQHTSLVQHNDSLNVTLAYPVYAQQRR

IC50 (prostate line LNCap) [nM]	IC50 (PI3K) [nM]	IC50 (prostate line LNCap; Homo sapiens, LNCaP, 72 h) [nM]	Structure (SMILES)	IC50 (breast line MDA468) [nM]	IC50 (breast line MDA468; Homo sapiens, 72 h) [nM]
800	224	–	CNC(=O)Nc1ccc(-c2nc(N3CCOCC3)c3cnn(C4CCN(C(C)=O)CC4)c3n2)cc1 [Compound 716, 1-{4-[1-(1-acetylpiperidin-4-yl)-4-morpholin-4-yl-1H-pyrazolo[3,4-d]pyrimidin-6-yl]phenyl}-3-methylurea]	1200	–
200	209	–	CNC(=O)Nc1ccc(-c2nc(N3CCOCC3)c3cnn(C4CCN(C(=O)N(C)C)CC4)c3n2)cc1 [Compound 717, N,N-dimethyl-4-(6-{4-[(methylcarbamoyl)amino]phenyl}-4-morpholin-4-yl-1H-pyrazolo[3,4-d]pyrimidin-1-yl)piperidine-1-carboxamide]	480	–
150	148	–	CNC(=O)Nc1ccc(-c2nc(N3CCOCC3)c3cnn(C4CCN(C(=O)C(C)C)CC4)c3n2)cc1 [Compound 719, 1-{4-[1-(1-isobutyrylpiperidin-4-yl)-4-morpholin-4-yl-1H-pyrazolo[3,4-d]pyrimidin-6-yl]phenyl}-3-methylurea]	250	–
2200	148	–	CNC(=O)Nc1ccc(-c2nc(N3CCOCC3)c3cnn(C4CCN(C(=O)NC)CC4)c3n2)cc1 [Compound 722, N-methyl-4-(6-{4-[(methylcarbamoyl)amino]phenyl}-4-morpholin-4-yl-1H-pyrazolo[3,4-d]pyrimidin-1-yl)piperidine-1-carboxamide]	1800	–
800	42	–	CNC(=O)Nc1ccc(-c2nc(N3CCOCC3)c3cnn(C4CCN(C(=O)c5cccnc5)CC4)c3n2)cn1 [Compound 725, 1-methyl-3-(5-{4-morpholin-4-yl-1-[1-(pyridin-3-ylcarbonyl)piperidin-4-yl]-1H-pyrazolo[3,4-d]pyrimidin-6-yl}pyridin-2-yl)urea]	1150	–
–	98	2700	C[C@H]1COCCN1c1nc(-c2cccc(O)c2)nc2c1cnn2-c1ccccc1 [Compound 726, 3-{4-[(3S)-3-methylmorpholin-4-yl]-1-phenyl-1H-pyrazolo[3,4-d]pyrimidin-6-yl}phenol]	–	8000
–	11000	55000	O=C1COCCN1c1nc(-c2cccc(O)c2)nc2c1cnn2-c1ccccc1 [Compound 727, 4-[6-(3-hydroxyphenyl)-1-phenyl-1H-pyrazolo[3,4-d]pyrimidin-4-yl]morpholin-3-one]	–	> 60000
–	40	240	Oc1cccc(-c2nc(N3CCOCC3)c3cnn(CC(F)(F)F)c3n2)c1 [Compound 728, 3-[4-morpholin-4-yl-1-(2,2,2-trifluoroethyl)-1H-pyrazolo[3,4-d]pyrimidin-6-yl]phenol]	–	745
–	194	225	CNC(=O)Nc1ccc(-c2nc(N3CCOCC3)c3cnn(CC(F)(F)F)c3n2)cc1 [Compound 729, 1-methyl-3-{4-[4-morpholin-4-yl-1-(2,2,2-trifluoroethyl)-1H-pyrazolo[3,4-d]pyrimidin-6-yl]phenyl}urea]	–	600
–	364	420	CNC(=O)Nc1ccc(-c2nc(N3CCOCC3)c3cnn(C4CCN(Cc5cccnc5)CC4)c3n2)cc1Cl [Compound 730, 1-(2-chloro-4-{4-morpholin-4-yl-1-[1-(pyridin-3-ylmethyl)piperidin-4-yl]-1H-pyrazolo[3,4-d]pyrimidin-6-yl}phenyl)-3-methylurea]	–	1800
–	490	< 27	CCNC(=O)Nc1ccc(-c2nc(N3CCOCC3)c3cnn(C4CCN(C(=O)OC)CC4)c3n2)cc1 [Compound 731, methyl 4-(6-{4-[(ethylcarbamoyl)amino]phenyl}-4-morpholin-4-yl-1H-pyrazolo[3,4-d]pyrimidin-1-yl)piperidine-1-carboxylate]	–	70
–	402	800	COC(=O)N1CCC(n2ncc3c(N4CCOCC4)nc(-c4ccc(NC(=O)NCCO)cc4)nc32)CC1 [Compound 733, methyl 4-[6-(4-{[(2-hydroxyethyl)carbamoyl]amino}phenyl)-4-morpholin-4-yl-1H-pyrazolo[3,4-d]pyrimidin-1-yl]piperidine-1-carboxylate]	–	580
–	1150	565	COC(=O)N1CCC(n2ncc3c(N4CCOCC4)nc(-c4ccc(NC(=O)Nc5ccccn5)cc4)nc32)CC1 [Compound 736, methyl 4-(4-morpholin-4-yl-6-{4-[(pyridin-2-ylcarbamoyl)amino]phenyl}-1H-pyrazolo[3,4-d]pyrimidin-1-yl)piperidine-1-carboxylate]	–	17000
–	34	< 27	COC(=O)N1CCC(n2ncc3c(N4CCOCC4)nc(-c4ccc(NC(=O)Nc5cccnc5)cc4)nc32)CC1 [Compound 737, methyl 4-(4-morpholin-4-yl-6-{4-[(pyridin-3-ylcarbamoyl)amino]phenyl}-1H-pyrazolo[3,4-d]pyrimidin-1-yl)piperidine-1-carboxylate]	–	< 27
–	153	50	CNC(=S)Nc1ccc(-c2nc(N3CCOCC3)c3cnn(C4CCN(C(=O)OC)CC4)c3n2)cc1 [Compound 742, methyl 4-[6-(4-{[(methylamino)carbonothioyl]amino}phenyl)-4-morpholin-4-yl-1H-pyrazolo[3,4-d]pyrimidin-1-yl]piperidine-1-carboxylate]	–	220
–	212	1800	CNC(=O)Nc1ccc(-c2nc(N3CCOCC3)c3cnn(C4CCN(CCCCO)CC4)c3n2)cc1 [Compound 743, 1-(4-{1-[1-(4-hydroxybutyl)piperidin-4-yl]-4-morpholin-4-yl-1H-pyrazolo[3,4-d]pyrimidin-6-yl}phenyl)-3-methylurea]	–	2200
–	1050	3500	COC(=O)Nc1ccc(-c2nc(N3CCOCC3)c3cnn(C4CCN(CCCCO)CC4)c3n2)cc1 [Compound 744, methyl (4-{1-[1-(4-hydroxybutyl)piperidin-4-yl]-4-morpholin-4-yl-1H-pyrazolo[3,4-d]pyrimidin-6-yl}phenyl)carbamate]	–	10200
–	550	1300	CCNC(=O)Nc1ccc(-c2nc(N3CCOCC3)c3cnn(C4CCN(CCCCO)CC4)c3n2)cc1 [Compound 745, 1-ethyl-3-(4-{1-[1-(4-hydroxybutyl)piperidin-4-yl]-4-morpholin-4-yl-1H-pyrazolo[3,4-d]pyrimidin-6-yl}phenyl)urea]	–	2900
–	370	29000	O=C(NCCO)Nc1ccc(-c2nc(N3CCOCC3)c3cnn(C4CCN(CCCCO)CC4)c3n2)cc1 [Compound 746, 1-(4-{1-[1-(4-hydroxybutyl)piperidin-4-yl]-4-morpholin-4-yl-1H-pyrazolo[3,4-d]pyrimidin-6-yl}phenyl)-3-(2-hydroxyethyl)urea]	–	30000
–	782	3300	O=C(NCCF)Nc1ccc(-c2nc(N3CCOCC3)c3cnn(C4CCN(CCCCO)CC4)c3n2)cc1 [Compound 747, 1-(2-fluoroethyl)-3-(4-{1-[1-(4-hydroxybutyl)piperidin-4-yl]-4-morpholin-4-yl-1H-pyrazolo[3,4-d]pyrimidin-6-yl}phenyl)urea]	–	6660
–	53	80	O=C(Nc1ccccc1)Nc1ccc(-c2nc(N3CCOCC3)c3cnn(C4CCN(CCCCO)CC4)c3n2)cc1 [Compound 748, 1-(4-{1-[1-(4-hydroxybutyl)piperidin-4-yl]-4-morpholin-4-yl-1H-pyrazolo[3,4-d]pyrimidin-6-yl}phenyl)-3-phenylurea]	–	390
–	4230	12000	Nc1ccc(-c2nc(N3CCOCC3)c3cnn(C4CCN(CCCCO)CC4)c3n2)cc1 [Compound 749, 4-{4-[6-(4-aminophenyl)-4-morpholin-4-yl-1H-pyrazolo[3,4-d]pyrimidin-1-yl]piperidin-1-yl}butan-1-ol]	–	30000
–	221	33	CCOC(=O)N1CCC(n2ncc3c(N4CCOCC4)nc(-c4ccc(NC(=O)NC)cc4)nc32)CC1 [Compound 750, ethyl 4-(6-{4-[(methylcarbamoyl)amino]phenyl}-4-morpholin-4-yl-1H-pyrazolo[3,4-d]pyrimidin-1-yl)piperidine-1-carboxylate]	–	80
–	106	34	CCCOC(=O)N1CCC(n2ncc3c(N4CCOCC4)nc(-c4ccc(NC(=O)NC)cc4)nc32)CC1 [Compound 751, propyl 4-(6-{4-[(methylcarbamoyl)amino]phenyl}-4-morpholin-4-yl-1H-pyrazolo[3,4-d]pyrimidin-1-yl)piperidine-1-carboxylate]	–	110
–	100	47	C=COC(=O)N1CCC(n2ncc3c(N4CCOCC4)nc(-c4ccc(NC(=O)NC)cc4)nc32)CC1 [Compound 753, vinyl 4-(6-{4-[(methylcarbamoyl)amino]phenyl}-4-morpholin-4-yl-1H-pyrazolo[3,4-d]pyrimidin-1-yl)piperidine-1-carboxylate]	–	110
–	72	130	CNC(=O)Nc1ccc(-c2nc(N3CCOCC3)c3cnn(C4CCN(C(=O)OCC(C)C)CC4)c3n2)cc1 [Compound 754, isobutyl 4-(6-{4-[(methylcarbamoyl)amino]phenyl}-4-morpholin-4-yl-1H-pyrazolo[3,4-d]pyrimidin-1-yl)piperidine-1-carboxylate]	–	270
